Measurements reported in US20110123530A1, “COMPOSITIONS AND METHODS FOR TREATING AND DIAGNOSING ASTHMA” (priority 2008, published 2011).

Key:
subjects with asthma = assay: Randomized controlled trial of inhaled fluticasone or placebo: FEV1 by spirometry; type: in vivo, human; conditions: for Improvement in FEV1 as compared to subjects treated with placebo: inhaled fluticasone, 4 and 8 weeks; for ΔFEV1 with fluticasone at 4 weeks / ΔFEV1 with fluticasone 8 weeks: asthma, inhaled fluticasone 500 μg twice daily, mean ± SD
Experimental: “Forced expiratory volume (FEV1)” refers to a standard test that measures the volume of air expelled in the first second of a forced expiration. […] To perform spirometry, a person inhales deeply, closes the mouth tightly around the tube and then exhales through the tubing while measurements are taken. The volume of air exhaled, and the length of time each breath takes is recorded and analyzed. Spirometry results are expressed as a percentage. Examples of normal spirometry results include a FEV1 of 75 percent of vital capacity after one second. An example of abnormal spirometry results include a reading of less than 80 percent of the normal predicted value. An abnormal result usually indicates the presence of some degree of obstructive lung disease such as asthma, emphysema or chronic bronchitis, or restrictive lung disease such as pulmonary fibrosis. For example, FEV1 values (percentage of predicted) can be used to classify the obstruction that may occur with asthma and other obstructive lung diseases like emphysema or chronic bronchitis: FEV1 […] to 79 percent predicted=mild obstruction, FEV1 40 percent to 59 percent predicted=moderate obstruction, and FEV1 less than 40 percent predicted=severe obstruction. Thirty-two of the subjects with asthma had also been enrolled in a double-blind randomized controlled clinical trial of inhaled fluticasone (500 μg, twice daily, N=19) or matched placebo (N=13) (ClinicalTrials.gov Identifier: NCT00187499). The trial was designed to determine the effects of inhaled steroid (fluticasone) on airway gene expression and to relate gene expression changes to improvements in lung function. The asthma subjects in the clinical trial had undergone baseline bronchoscopy and had been randomized to receive study medication before undergoing repeat bronchoscopy one week later after starting study drug. Asthma subjects continued study medication for a total of 8 weeks. Healthy control subjects and smokers were enrolled in one of three cross-sectional studies, which comprised two visits each, the first for characterization and the second for bronchoscopy 1 week later. Thirty-five subjects had adequate baseline bronchoscopy, and 32 had RNA available from epithelial brushings at both bronchoscopies. Lung function was measured (by spirometry) after 4 weeks and 8 weeks on study medication, and a final spirometry was completed after a one week run-out. Methods for bronchoscopy, epithelial brushing, bronchoalveaolar lavage, spirometry, and sample handling were identical across all studies. Bronchoalveolar lavage (BAL) was performed by instilling 4 aliquots of 50 ml of sterile saline into either the lingula or right middle lobe, with recovery by suction. Cell counts were performed using a hemocytometer and Turks solution (1% glacial acetic acid and 0.01% gentian violet in distilled H2O). Then BAL cell differentials were performed on cytocentrifuged preparations using the Shandon Kwik-Diff stain kit (Thermo Fisher Scientific, Waltham Mass.). Thirty-two of the subjects with asthma were also enrolled in a double-blind randomized controlled clinical trial of inhaled fluticasone (500 mcg BID) or matched placebo. In addition to the inclusion criteria above, these subjects were also required to have either asthma symptoms on 2 or more days per week, or β-agonist use on 2 or more days per week, or FEV1<85% predicted. Subjects in the clinical trial underwent a baseline visit and baseline bronchoscopy as described above, were randomized to receive study medication and underwent repeat bronchoscopy one week later. Then, they continued study medication for a total of 8 weeks with scheduled re-assessment of spirometry and methacholine challenge testing. […]

serum periostin = assay: Serum periostin electrochemiluminescent assay (ECLA); type: in vivo, human; conditions: asthmatics on inhaled corticosteroids (N = 51) vs No ICS (N = 49)
Experimental: Serum IgE was measured by UCSF clinical laboratories or by ELISA using a human serum IgE ELISA kit according to manufacturer's instructions (Bethyl Laboratories). Serum CEA was measured using a human serum CEA ELISA kit according to manufacturer's instructions (Alpco Diagnostics). We developed an electrochemiluminescent assay (ECLA) to measure serum periostin using anti-periostin antibodies (R&D systems). Briefly, monoclonal anti-periostin was coated onto plates at 1.5 micrograms/ml in sodium carbonate buffer, pH 9.6 overnight at 4° C. Plates were blocked in assay buffer (1×PBS pH 7.4, 0.35 M NaCl, 0.5% BSA, 0.05% Tween 20, 0.25% CHAPS, 5 mM EDTA, 15PPM Proclin)+3% BSA for 2 hours at room temperature, then washed 4× with TBST (Tris-buffered saline+0.1% Tween-20). Serum was diluted 1:5 in assay buffer and incubated with agitation at room temperature for 2 h, then washed 4× with TBST. Recombinant periostin (R&D Systems) was used to establish a standard range. […] Reading buffer (Meso Scale Devices) was added and electrochemiluminescence was read (Meso Scale Devices). […] In addition, we measured IgE and YKL-40, a serum marker previously described to be elevated in some asthmatics, in these same sera. […]

In the case of `CCC(=O)O[C@]1(C(=O)SCF)[C@H](C)C[C@H]2[C@@H]3C[C@H](F)C4=CC(=O)C=C[C@]4(C)[C@@]3(F)[C@@H](O)C[C@@]21C` [fluticasone, fluticasone propionate], the “Improvement in FEV1 as compared to subjects treated with placebo” value (subjects with asthma; IL-13 high asthma subphenotype) is reported as “significant improvements in FEV1”, the “Improvements in FEV1 after a one week run out period off drug” value (subjects with asthma; IL-13 high group, week 9) is reported as “lost” and the “Improvement in FEV1 as compared to subjects treated with placebo” value (subjects with asthma; IL-13 low asthma subphenotype) is reported as “did not”. The “ΔFEV1 with fluticasone at 4 weeks” value (subjects with asthma; IL13 Signature Low) was 0.03 ± 0.12 L, the “ΔFEV1 with fluticasone 8 weeks” value (subjects with asthma; IL13 Signature Low) was 0.04 ± 0.12 L and the “ΔFEV1 with fluticasone at 4 weeks” value (subjects with asthma; IL-13 Signature High) was 0.35 ± 0.2 L. For the same compound, the “ΔFEV1 with fluticasone 8 weeks” value (subjects with asthma; IL-13 Signature High) was 0.25 ± 0.23 L and the “Periostin, level of serum biomarker, median (range)” value (serum periostin) was 48 (0-117) ng/ml.
